Test results reported in patent US10420770B2, “Compositions and methods for treating dementia” (EIP Pharma, LLC, priority 2016, dated 2019).

Columns and labels:
Type in all cases: in vivo, human
interleukin-10 (IL-10) = assay: CSF cytokine measurement (Mesoscale Discovery), IL-10, 6-week study; conditions: day 41; after VX-745 reached Cmax in the plasma
Method: Cytokine measurements of CSF samples were done to assess the balance of pro-inflammatory versus anti-inflammatory cytokines. The t-helper type 1/t-helper type 2 (TH1/TH2) multiplex cytokine (IFN-γ, IL-1β, IL-2, IL-4, IL-5, IL-8, IL-10, IL-12p70, IL-13, TNFα ) panel by Mescoscale Discovery were utilized to inform on effects on the relative balance of pro-inflammatory cytokines (e.g. IL-1β, TNFα) versus anti-inflammatory cytokines (e.g., IL-10).
Target engagement was assessed through the evaluation of the effect of drug treatment on CSF biomarkers. CSF was collected at 6 time-points over 24 hours at baseline (the 24 hours prior to first dose) and again at 6 time-points over 24 hours near the end of treatment on Day 40. The samples were evaluated by the Mesoscale Discovery ELISA platform for multiple cytokines ((IFN-γ, IL-1β, IL-2, IL-4, IL-5, IL-8, IL-12 protein 70, IL-13, TNFα, and CSF) and for amyloid-beta peptides (Aβ 38/40/42).

butylcholinesterase = assay: CSF butylcholinesterase, 6-week study; conditions: baseline to day 40
[1] = test system: patients with mild cognitive impairment (MCI) due to Alzheimer's disease (AD) or with mild AD; assay: Mini-Mental State Examination (MMSE), 12-week study (Example 1); conditions: for subjects with an increase from screening of at least 1 in MMSE score: Day 84 (Visit 7)
Excerpt: (§1) The MMSE is a questionnaire used extensively in clinical and research settings to measure mental function. It is commonly used to screen for dementia, and to assess the severity and progression of dementia. The MMSE is an effective way to document a human subject's response to treatment. The test examines functions including registration, attention and calculation, recall, language, ability to follow simple commands and orientation.
(§2) Investigators and patients were blind to the dosage strength. […] Patients were instructed to take doses within 30 minutes following a meal or snack, with each dose taken approximately 12 hours apart at the same times each day throughout the study.

[2] = test system: patients with mild cognitive impairment (MCI) due to Alzheimer's disease (AD) or with mild AD; assay: Hopkins Verbal Learning Test-Revised (HVLT-R), 6-week study (Example 2); conditions: for HVLT-R Delayed Recall change from averaged baseline, Maximum / HVLT-R Delayed Recall change from averaged baseline, Median / HVLT-R Delayed Recall change from averaged baseline, Minimum / HVLT-R RDI change from averaged baseline, Maximum / HVLT-R RDI change from averaged baseline, Median / HVLT-R RDI change from averaged baseline, Minimum / HVLT-R Retention change from averaged baseline, Maximum / HVLT-R Retention change from averaged baseline, Median / HVLT-R Retention change from averaged baseline, Minimum / HVLT-R Total Recall change from averaged baseline, Maximum / HVLT-R Total Recall change from averaged baseline, Median / HVLT-R Total Recall change from averaged baseline, Minimum: n=8; for HVLT-R Delayed Recall change from averaged baseline, Arithmetic Mean / HVLT-R Retention change from averaged baseline, Arithmetic Mean / HVLT-R Total Recall change from averaged baseline, Arithmetic Mean: overall pharmacodynamic population n=8
Method: The Hopkins Verbal Learning Test-Revised (HVLT-R) was utilized to assess episodic memory. In this test, 12 specific words from a list were provided verbally, and the subject was asked to recall as many words as possible. Two scores are calculated: (i) Total (Immediate) Recall Score (range: 0-36): combined score of three consecutive trials immediately following provision of words and (ii) Delayed Recall Score (range: 0-12): Number of words recalled when subject was asked 20 to 25 minutes after initial trials to recall as many of the words originally provided. A strength of the HVLT-R is that six different validated version exist that each incorporate a different set of words. Due to the use of these different versions during the course of a clinical study, there is essentially no practice effect with repeated administration (Benedict, R. H. B. et al, “Hopkins Verbal Learning Test-Revised: Normative Data and Analysis of Inter-Form and Test-Retest Reliability” The Clinical Neuropsychologist, 12(1): 43-55 (1998)).

[3] = test system: patients with mild cognitive impairment (MCI) due to Alzheimer's disease (AD) or with mild AD; assay: MMSE, 6-week study (Example 2); conditions: baseline vs day 40; no statistical analyses
Excerpt: as §1
Subjects were men and women between 60-85 years old, having a confirmed diagnosis of MCI due to AD or mild AD (consistent with National Institute of Aging and Alzheimer's Association research diagnostic guidelines) and a Mini-Mental State Examination (MMSE) score greater than 20. Inclusion criteria included gradual and progressive decline in memory function reported by patients or informants over more than 6 months; an amnestic presentation on formal neuropsychological testing that was characterized by a pattern of rapid forgetting, as determined by the PI/subinvestigator; evidence of functional decline as evidenced by a CDR sum of box score of ≥0.5; and MMSE score of 17 to 30, inclusive. […] A total of 9 subjects were enrolled and all were included in safety analysis; 8 subjects completed 6 weeks treatment and were included in pharmacodynamics analysis. […]

brain metabolism = assay: Brain FDG PET scan, 6-week study; conditions: baseline to day 40
Method: Quantitative EEG was conducted as a measure of the effects of inflammatory cytokines on synaptic function and the effects of modulation of p38 MAPK on synaptic plasticity. Brain fluorodeoxyglucose (FDG) PET scan was conducted at the Screening Visit and Day 40 to measure brain metabolism. In addition, CSF drug levels of VX-745 were obtained to confirm delivery of drug to the brain.

[4] = Plasma pharmacokinetics, 12-week Phase IIa study (Example 1); conditions: 40 mg dose level, twice daily, 12-week study
Method: as §2
Dosing started on Day 1 following completion of all baseline procedures. During the treatment period, subjects returned to the clinic on Days 14, 28, 56, and 84. […] Dynamic PET scanning with fill quantitative analysis was performed at baseline and at the end of treatment.
Sixteen subjects completed the full 12 weeks of treatment and all were included in safety analyses. […] In the PK analysis, due to the sparse sampling collection design, the time period from 0 to 24 hours post-dose was divided into 4 blocks in order to show the distribution of concentrations over time. […] Average blood concentration of about 8 ng/mL at the 40 mg dose level was observed. This is higher than the 5 ng/mL.

[5] = Example 2 study (N = 8), HLVT-R

O=c1ncn2nc(Sc3ccc(F)cc3F)ccc2c1-c1c(Cl)cccc1Cl [VX-745]
CSF IL-10 change from baseline (interleukin-10 (IL-10)): decreased rapidly
CSF levels of butylcholinesterase (butylcholinesterase): no change
subjects with an increase from screening of at least 1 in MMSE score ([1]; 40 mg group): approximately 50%
patients with greater than a 3-point improvement in MMSE score over baseline ([1]; 40 mg group, FIG. 2): two of four
subjects with an increase from screening of at least 1 in MMSE score ([1]; 125 mg group): ~33%
HVLT-R Delayed Recall change from averaged baseline, Maximum ([2]; Day 14): 4
HVLT-R Delayed Recall change from averaged baseline, Median ([2]; Day 14): 1.0
HVLT-R Delayed Recall change from averaged baseline, Minimum ([2]; Day 14): −3
HVLT-R RDI change from averaged baseline, Maximum ([2]; Day 14): 5
HVLT-R RDI change from averaged baseline, Median ([2]; Day 14): −0.3
HVLT-R RDI change from averaged baseline, Minimum ([2]; Day 14): −3
HVLT-R Retention change from averaged baseline, Maximum ([2]; Day 14): 35%
HVLT-R Retention change from averaged baseline, Median ([2]; Day 14): 6.3%
HVLT-R Retention change from averaged baseline, Minimum ([2]; Day 14): −37%
HVLT-R Total Recall change from averaged baseline, Maximum ([2]; Day 14): 6
HVLT-R Total Recall change from averaged baseline, Median ([2]; Day 14): 0.0
HVLT-R Total Recall change from averaged baseline, Minimum ([2]; Day 14): −2
HVLT-R Delayed Recall change from averaged baseline, Arithmetic Mean ([2]; Day 14): 0.8
HVLT-R Retention change from averaged baseline, Arithmetic Mean ([2]; Day 14): 3.8%
HVLT-R Total Recall change from averaged baseline, Arithmetic Mean ([2]; Day 14): 0.6
HVLT-R Delayed Recall change from averaged baseline, Maximum ([2]; Day 40): 7
HVLT-R Delayed Recall change from averaged baseline, Median ([2]; Day 40): 1.0
HVLT-R Delayed Recall change from averaged baseline, Minimum ([2]; Day 40): 0
HVLT-R RDI change from averaged baseline, Maximum ([2]; Day 40): 6
HVLT-R RDI change from averaged baseline, Median ([2]; Day 40): 1.3
HVLT-R RDI change from averaged baseline, Minimum ([2]; Day 40): −11
HVLT-R Retention change from averaged baseline, Maximum ([2]; Day 40): 71%
HVLT-R Retention change from averaged baseline, Median ([2]; Day 40): 6.5%
HVLT-R Retention change from averaged baseline, Minimum ([2]; Day 40): −14%
HVLT-R Total Recall change from averaged baseline, Maximum ([2]; Day 40): 10
HVLT-R Total Recall change from averaged baseline, Median ([2]; Day 40): 4.5
HVLT-R Total Recall change from averaged baseline, Minimum ([2]; Day 40): −3
HVLT-R Delayed Recall change from averaged baseline, Arithmetic Mean ([2]; Day 40): 2.1
HVLT-R Retention change from averaged baseline, Arithmetic Mean ([2]; Day 40): 15.3%
HVLT-R Total Recall change from averaged baseline, Arithmetic Mean ([2]; Day 40): 3.5
Calculated within-subject treatment effect size (Cohen's d), Delayed Recall [2, 5]: .86
Calculated within-subject treatment effect size (Cohen's d), Immediate Recall [2, 5]: .69
Median increase in HVLT-R Total Recall score ([2]; during 6-week treatment): 4.5 (range: −2.5 to +9.5)
HVLT-R Mean Total Recall score ([2]; week 6, Baseline 19.1 (±1.5), p=0.015): 22.6 (±2.1)
HVLT-R Delayed Recall score ([2]; week 6, baseline 5.4 (±0.6), P=0.028): 7.5 (±1.1)
MMSE individual subject scores [3]: overall trends are encouraging
FDG-PET (brain metabolism): no change
Average blood concentration [4]: about 8 ng/mL
